“And” between values parts separate entries of the source, which are not always exact repeats. Equal values may be shown once. Results filed as inconclusive are left out.
System: CD8F1 mice, subcutaneous mammary adenocarcinoma, T/C%
Assay: NCI In Vivo Anticancer Drug Screen. Data for tumor model Mammary Adenocarcinoma CD8F1 (subcutaneous) in CD8F1
Details: higher = larger tumour
Method in brief: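 Antitumor activity is assessed in transplantable-tumor mice by comparing the treated group with a vehicle-treated control group. Survival or tumor size serves as the measure, reported as T divided by C.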

[1] = endpoint: median tumor weight (est.), dose: 6.25 mg/kg/injection, schedule: Q07DX005 (ip), vehicle: Klucel (hydroxypropylcellulose) (HPC)
[2] = endpoint: median tumor weight (est.), dose: 12.5 mg/kg/injection, schedule: Q07DX005 (ip), vehicle: Klucel (hydroxypropylcellulose) (HPC)
[3] = endpoint: median tumor weight (est.), dose: 25.0 mg/kg/injection, schedule: Q07DX005 (ip), vehicle: Klucel (hydroxypropylcellulose) (HPC)
[4] = endpoint: median tumor weight (est.), dose: 50.0 mg/kg/injection, schedule: Q07DX005 (ip), vehicle: Klucel (hydroxypropylcellulose) (HPC)
[5] = endpoint: median tumor weight (est.), dose: 100.0 mg/kg/injection, schedule: Q07DX005 (ip), vehicle: Klucel (hydroxypropylcellulose) (HPC)
[6] = endpoint: median tumor weight change, dose: 15.62 mg/kg/injection, schedule: Q01DX001 (ip), vehicle: saline with Tween-80
[7] = endpoint: median tumor weight change, dose: 62.5 mg/kg/injection, schedule: Q01DX001 (ip), vehicle: saline with Tween-80
[8] = endpoint: median tumor weight change, dose: 125.0 mg/kg/injection, schedule: Q01DX001 (ip), vehicle: saline with Tween-80
[9] = endpoint: median tumor weight change, dose: 250.0 mg/kg/injection, schedule: Q01DX001 (ip), vehicle: saline with Tween-80
[10] = endpoint: median tumor weight (est.), dose: 12.5 mg/kg/injection, schedule: Q07DX005 (ip), vehicle: saline with Tween-80
[11] = endpoint: median tumor weight (est.), dose: 25.0 mg/kg/injection, schedule: Q07DX005 (ip), vehicle: saline with Tween-80
[12] = endpoint: median tumor weight (est.), dose: 50.0 mg/kg/injection, schedule: Q07DX005 (ip), vehicle: saline with Tween-80
[13] = endpoint: median tumor weight (est.), dose: 100.0 mg/kg/injection, schedule: Q07DX005 (ip), vehicle: saline with Tween-80
[14] = endpoint: median tumor weight (est.), dose: 200.0 mg/kg/injection, schedule: Q07DX005 (ip), vehicle: Klucel (hydroxypropylcellulose) (HPC)
[15] = endpoint: median tumor weight (est.), dose: 4.0 mg/kg/injection, schedule: Q07DX005 (ip), vehicle: saline
[16] = endpoint: median tumor weight (est.), dose: 8.0 mg/kg/injection, schedule: Q07DX005 (ip), vehicle: saline

With `CCCCCCC1C=Cc2ccccc21` (configuration not stated) the T/C [1] was 65 % of control, the T/C [2] was 61 % of control and the T/C [3] was 84 % of control. The T/C [4] was 86 % of control and the T/C [5] was 66 % of control.
In the case of `CCOC1=Cc2c(oc3c(C(C)(C)C)cc(OCC)cc23)OC(C(C)(C)C)=C1`, the T/C (endpoint: median tumor weight change, dose: 15.6 mg/kg/injection, schedule: Q01DX001 (ip), vehicle: saline with Tween-80) was 114 % of control, the T/C [6] was 98 % of control and the T/C [7] was 85 % of control and 106 % of control.
For `O=C(O)CCCCCCCC(=O)O`, the T/C (endpoint: median tumor weight change, dose: 225.0 mg/kg/injection, schedule: Q01DX001 (ip), vehicle: distilled water + Tween-80) was 122 % of control and the T/C (endpoint: median tumor weight change, dose: 450.0 mg/kg/injection, schedule: Q01DX001 (ip), vehicle: distilled water + Tween-80) was 82 % of control.
For `O=C1c2ccccc2C(=O)c2c3c(cc(NCCNCCO)c21)N(CCO)CCN3`, the T/C [8] was 97 % of control, the T/C [9] was 91 % of control and the T/C (endpoint: median tumor weight change, dose: 500.0 mg/kg/injection, schedule: Q01DX001 (ip), vehicle: saline with Tween-80) was 77 % of control.
With `Cc1oc2c(C)c3oc(=O)cc(C)c3cc2c1CCl` the T/C [6] was 60 % of control, the T/C (endpoint: median tumor weight change, dose: 31.25 mg/kg/injection, schedule: Q01DX001 (ip), vehicle: saline with Tween-80) was 68 % of control and the T/C (endpoint: median tumor weight change, dose: 1000.0 mg/kg/injection, schedule: Q01DX001 (ip), vehicle: saline with Tween-80) was 42 % of control.
In the case of `O=C1NC(=O)C2C3C=CC(C12)C1C2C(=O)NC(=O)C2C31` (configuration not stated), the T/C (endpoint: median tumor weight change, dose: 18.0 mg/kg/injection, schedule: Q01DX005 (ip), vehicle: water) was 62 % of control, the T/C (endpoint: median tumor weight change, dose: 30.0 mg/kg/injection, schedule: Q01DX005 (ip), vehicle: water) was 17 % of control and the T/C (endpoint: median tumor weight change, dose: 50.0 mg/kg/injection, schedule: Q01DX005 (ip), vehicle: water) was -5 % of control. The T/C (endpoint: median tumor weight change, dose: 54.0 mg/kg/injection, schedule: Q01DX001 (ip), vehicle: saline) was 64 % of control, the T/C (endpoint: median tumor weight change, dose: 62.0 mg/kg/injection, schedule: Q01DX001 (ip), vehicle: saline with Tween-80) was 70 % of control and the T/C [7] was 78 % of control. The T/C (endpoint: median tumor weight change, dose: 90.0 mg/kg/injection, schedule: Q01DX001 (ip), vehicle: saline) was 30 % of control, the T/C [8] was 15 % of control and 27 % of control and the T/C [9] was -25 % of control.
In the case of `C[C@@H]1C[C@H]2[C@@H]3CCC4=CC(=O)C=C[C@]4(C)[C@@]3(F)[C@@H](O)C[C@]2(C)[C@@]1(O)C(=O)CO`, the T/C [1] was 88 % of control, the T/C [2] was 32 % of control and the T/C [3] was 31 % of control. For the same molecule, the T/C [4] was 12 % of control and the T/C [5] was 7 % of control.
In the case of `Cc1c(N)nc(C(CC(N)=O)NCC(N)C(N)=O)nc1C(=O)NC(C(=O)NC(C)C(O)C(C)C(=O)NC(C(=O)NCCc1nc(-c2nc(C(=O)NCCCNC(C)c3ccccc3)cs2)cs1)C(C)O)C(OC1OC(CO)C(O)C(O)C1OC1OC(CO)C(O)C(OC(N)=O)C1O)c1cnc[nH]1` (configuration not stated), the T/C (endpoint: median tumor weight (est.), dose: 0.5 mg/kg/injection, schedule: Q07DX005 (ip), vehicle: water) was 122 % of control, the T/C (endpoint: median tumor weight (est.), dose: 1.0 mg/kg/injection, schedule: Q07DX005 (ip), vehicle: water) was 123 % of control and the T/C (endpoint: median tumor weight (est.), dose: 2.0 mg/kg/injection, schedule: Q07DX005 (ip), vehicle: water) was 89 % of control. For the same molecule, the T/C (endpoint: median tumor weight (est.), dose: 4.0 mg/kg/injection, schedule: Q07DX005 (ip), vehicle: water) was 29 % of control, the T/C (endpoint: median tumor weight (est.), dose: 8.0 mg/kg/injection, schedule: Q07DX005 (ip), vehicle: water) was 78 % of control and the T/C (endpoint: median tumor weight (est.), dose: 16.0 mg/kg/injection, schedule: Q07DX005 (ip), vehicle: water) was 21 % of control.
`C/C=C/c1cc2c(c(=O)o1)C(=O)[C@@H](O)[C@H](C)O2` was tested, and the T/C [10] was 89 % of control, the T/C [11] was 87 % of control and the T/C [12] was 102 % of control. The T/C [13] was 77 % of control and the T/C (endpoint: median tumor weight (est.), dose: 200.0 mg/kg/injection, schedule: Q07DX005 (ip), vehicle: saline with Tween-80) was 82 % of control.
For `Ic1ncnc2c1ncn2C1CCCO1` (configuration not stated), the T/C [3] was 36 % of control, the T/C [14] was 55 % of control and 64 % of control and the T/C (endpoint: median tumor weight (est.), dose: 400.0 mg/kg/injection, schedule: Q07DX005 (ip), vehicle: Klucel (hydroxypropylcellulose) (HPC)) was 41 % of control.
In the case of `COc1cc([C@@H]2c3cc4c(c(O)c3C[C@H]3COC(=O)[C@@H]32)OCO4)cc(OC)c1OC`, the T/C (endpoint: median tumor weight (est.), dose: 2.0 mg/kg/injection, schedule: Q07DX005 (ip), vehicle: saline) was 45 % of control, the T/C [15] was 222 % of control and the T/C [16] was 86 % of control. The T/C (endpoint: median tumor weight (est.), dose: 16.0 mg/kg/injection, schedule: Q07DX005 (ip), vehicle: saline) was 96 % of control.
`O=C(O)c1ccc(C(=O)O)c(C(=O)O)c1.[NH-]C1CCCCC1[NH-].[Pt+2]` was tested, and the T/C (endpoint: median tumor weight (est.), dose: 1.56 mg/kg/injection, schedule: Q07DX005 (ip), vehicle: sodium bicarbonate) was 38 % of control, the T/C (endpoint: median tumor weight (est.), dose: 3.12 mg/kg/injection, schedule: Q07DX005 (ip), vehicle: sodium bicarbonate) was 24 % of control and the T/C (endpoint: median tumor weight (est.), dose: 6.25 mg/kg/injection, schedule: Q07DX005 (ip), vehicle: sodium bicarbonate) was 11 % of control. For the same molecule, the T/C (endpoint: median tumor weight (est.), dose: 12.5 mg/kg/injection, schedule: Q07DX005 (ip), vehicle: sodium bicarbonate) was 11 % of control and the T/C (endpoint: median tumor weight (est.), dose: 25.0 mg/kg/injection, schedule: Q07DX005 (ip), vehicle: sodium bicarbonate) was 32 % of control.
With `CS(=O)(=O)OCCCCOS(C)(=O)=O` the T/C [2] was 91 % of control and 95 % of control, the T/C [3] was 59 % of control and 70 % of control and the T/C [14] was 8 % of control.
For `CCOC(=O)C1=C(C#N)C2(CCC(OCc3ccccc3)CC2)C(=O)O1` (configuration not stated), the T/C (endpoint: median tumor weight change, dose: 125.0 mg/kg/injection, schedule: Q01DX001 (ip), vehicle: suspension in saline) was 66 % of control, the T/C (endpoint: median tumor weight change, dose: 250.0 mg/kg/injection, schedule: Q01DX001 (ip), vehicle: suspension in saline) was 63 % of control and the T/C (endpoint: median tumor weight change, dose: 500.0 mg/kg/injection, schedule: Q01DX001 (ip), vehicle: suspension in saline) was 50 % of control. The T/C (endpoint: median tumor weight change, dose: 1000.0 mg/kg/injection, schedule: Q01DX001 (ip), vehicle: suspension in saline) was 24 % of control.
`CCNC(=O)[B-][N+](C)(C)C` was tested, and the T/C (endpoint: median tumor weight change, dose: 50.0 mg/kg/injection, schedule: Q01DX001 (ip), vehicle: Klucel (hydroxypropylcellulose) (HPC)) was 101 % of control, the T/C (endpoint: median tumor weight change, dose: 100.0 mg/kg/injection, schedule: Q01DX001 (ip), vehicle: Klucel (hydroxypropylcellulose) (HPC)) was 108 % of control and the T/C (endpoint: median tumor weight change, dose: 200.0 mg/kg/injection, schedule: Q01DX001 (ip), vehicle: Klucel (hydroxypropylcellulose) (HPC)) was 97 % of control. The T/C (endpoint: median tumor weight change, dose: 400.0 mg/kg/injection, schedule: Q01DX001 (ip), vehicle: Klucel (hydroxypropylcellulose) (HPC)) was 72 % of control.
`COC1=CC(=O)C(OC)=C(OC)C1=O` was tested, and the T/C (endpoint: median tumor weight (est.), dose: 6.25 mg/kg/injection, schedule: Q07DX005 (ip), vehicle: saline with Tween-80) was 63 % of control, the T/C [10] was 106 % of control and the T/C [11] was 90 % of control. The T/C [12] was 96 % of control and the T/C [13] was 74 % of control.
For `Cc1ccc2c(ccc(CC(=S)[S-])[n+]2C)c1`, the T/C [2] was 72 % of control and 97 % of control, the T/C [3] was 90 % of control and the T/C [4] was 102 % of control and 121 % of control. The T/C [5] was 46 % of control and 71 % of control and the T/C [14] was 32 % of control.
`O=[N+]([O-])c1ccc(-n2[nH]nnc2=S)cc1` was tested, and the T/C [8] was 101 % of control and 119 % of control and the T/C [9] was 112 % of control.
With `O=c1nc(-c2ccco2)sc(=O)[nH]1` the T/C (endpoint: median tumor weight change, dose: 31.25 mg/kg/injection, schedule: Q01DX001 (ip), vehicle: Klucel (hydroxypropylcellulose) (HPC)) was 123 % of control, the T/C (endpoint: median tumor weight change, dose: 62.5 mg/kg/injection, schedule: Q01DX001 (ip), vehicle: Klucel (hydroxypropylcellulose) (HPC)) was 63 % of control and the T/C (endpoint: median tumor weight change, dose: 125.0 mg/kg/injection, schedule: Q01DX001 (ip), vehicle: Klucel (hydroxypropylcellulose) (HPC)) was 120 % of control. The T/C (endpoint: median tumor weight change, dose: 250.0 mg/kg/injection, schedule: Q01DX001 (ip), vehicle: Klucel (hydroxypropylcellulose) (HPC)) was 53 % of control.
`O=C(O)C1CC(c2ccccc2)=NN1c1ccccc1` (configuration not stated) was tested, and the T/C (endpoint: median tumor weight (est.), dose: 12.5 mg/kg/injection, schedule: Q07DX005 (ip), vehicle: water) was 101 % of control, the T/C (endpoint: median tumor weight (est.), dose: 25.0 mg/kg/injection, schedule: Q07DX005 (ip), vehicle: water) was 83 % of control and the T/C (endpoint: median tumor weight (est.), dose: 50.0 mg/kg/injection, schedule: Q07DX005 (ip), vehicle: water) was 83 % of control. The T/C (endpoint: median tumor weight (est.), dose: 100.0 mg/kg/injection, schedule: Q07DX005 (ip), vehicle: water) was 78 % of control and the T/C (endpoint: median tumor weight (est.), dose: 200.0 mg/kg/injection, schedule: Q07DX005 (ip), vehicle: water) was 70 % of control.
For `N/C(=N\O)c1cn(C2OC(CO)C(O)C2O)c2ncnc(N)c12` (configuration not stated), the T/C [15] was 100 % of control and the T/C [16] was 112 % of control.

From PubChem BioAssay AID220 (DTP/NCI, 2004)
